This is an account of results in a melting point compilation (Tetko et al.; mined from patent text by program, amines drawn as free bases though some values may be those of a salt).

What is called melting point is the temperature, or range, at which the solid turns liquid. For `COC1(N(C)C)C=CC(C(=O)Nc2ccccc2)=CC1` (configuration not stated), the melting point is 173 °C.

Molecule `CCOC(=O)CNC(=O)C(C)(C)c1ccc(C2=NC(C)(C)Cc3cc(OC)c4c(c32)CC(C)(C)O4)cc1` returned a melting point of 133 to 138 °C.

`COc1cccc(C(=O)O)c1N`: the melting point is 172 to 175 °C.

Turning to `CCOC(=O)[C@@H]1C[C@H](Br)CN1C(=O)OC(C)(C)C`, the melting point was 32 to 34 °C.

Molecule `O=C1NCCN1Cc1ccc(Cl)c(Cl)c1` registered a melting point of 129 to 130 °C.

On to `COCCOc1ccc(-c2cncc(C#N)c2Nc2ccc3[nH]ccc3c2C)cc1`, for which the melting point is 208 to 210 °C.

`CCOC(=O)Cc1ccc(-c2ccc(OC)cc2)cc1` yielded a melting point of 68 °C.

Molecule `CN1CCN(c2cc(Cl)cc3c2c(=O)n(Cc2cccc(Cl)c2)c(=O)n3Cc2ccccc2)CC1` registered a melting point of 165 to 169 °C.

The molecule `COc1ccc(/C=C(\C#N)c2ccc(N)cc2)cc1OC1CCCC1` showed a melting point of 82 to 84 °C.

Molecule `CC(=O)OC1=CCC2C3CCC4CCC(OC(C)=O)CC4(C)C3CCC12C` (configuration not stated) had a melting point of 133 to 134 °C.

For the molecule `N#Cc1coc2ccc(Br)cc2c1=O`, the melting point fell in the range of 193 to 200 °C.

`Cn1cc(-c2cccc(N3Cc4cc(C(C)(C)C)ccc4C3=O)c2CO)nc(Nc2ccc(N3CCOCC3)cc2)c1=O`: the melting point lay within 225 to 227 °C.

On to `c1ccc(CN2CCC(CCc3noc4cc(N5CCOCC5)ccc34)CC2)cc1`, for which the melting point is 129 to 130 °C.

Regarding `CCOC(=O)C1Oc2cc(C=O)c(Cl)c(Cl)c2O1` (configuration not stated), the melting point lay within 81 to 83 °C.

For `COc1ccc(C)cc1NC(=O)Nc1ccc(N2CCN(C(=O)Nc3c(C)cccc3OC)CC2)cc1`, the melting point was in the range of 200 to 203 °C.

The molecule `COc1cccc2c1C(=O)C(Br)=C(Br)C2=O` showed a melting point of 190 °C.

Regarding `N#CCc1c(Cl)cccc1Br`, the melting point fell in the range of 82 to 84 °C.

`COc1cc(C=CC=O)ccc1OCc1coc(-c2ccccc2)n1` came in with a melting point of 144 to 145 °C.

As to `O=C1c2ccccc2C(=O)N1CCc1cc(Br)cs1`, the melting point was in the range of 115 to 117 °C.

`CC1CN(c2c(F)cc3c(=O)c(C(=O)O)cn(C4CC4)c3c2Cl)CC1CN` (configuration not stated) displayed a melting point of 235 to 238 °C.

The molecule `O=c1cc(-c2ccccc2)cc[nH]1` displayed a melting point of 226 to 230 °C.

`CCCC1=C(C#N)C(c2ccccc2Cl)c2c(n[nH]c2-c2cccc3ccccc23)N1` (configuration not stated) displayed a melting point of 254 °C.

`CCOC(=O)c1ccc(/C=C(\C)c2ccc(O)c(C3(C)CCCCC3)c2)cc1` came in with a melting point of 124 °C.

`NC(=O)N1C(=O)C(=C(OC(=O)c2cccnc2)c2cccs2)c2cc(F)c(Cl)cc21`: the melting point was in the range of 201 to 202 °C.

Regarding `CCN1CCN(c2ccc(-c3ccc4c(Nc5ccc(Sc6nccn6C)c(Cl)c5)c(C#N)cnc4c3)nc2)CC1`, the melting point is 246 to 248 °C.

Regarding `CC(C)(O)Cc1cc(O)ccc1Br`, the melting point lay in the range of 139 to 141 °C.

Consider `CC(C)c1cccc(C(C)C)c1NC(=O)CNC(c1ccccc1)c1ccc(F)cc1` (configuration not stated), for which the melting point was 161 °C.

In the case of `Cc1ccc(-c2nnc(N3CCC(=O)CC3)nc2-c2ccc(C)cc2)cc1`, the melting point was 197 to 199 °C.

As to `CC(C)N(C(C)C)C(C)CN1C(=O)C(=O)c2ccccc21` (configuration not stated), the melting point lay within 111 to 112 °C.

In turn, `CCOC(=O)C(C#N)=CNNc1ccc(C(F)(F)F)cc1[N+](=O)[O-]` had a melting point of 163 to 164 °C.

`CCCCCCCCCCCCCCCCCCOCc1ccc(C(=O)O)cc1OCCCCCCCCCCCCCCCCCC`: the melting point lay in the range of 87 to 88 °C.

Molecule `CCCCCCCCCCCCc1ccccc1CC(O)(SCCC(=O)O)C(N)=O` (configuration not stated) displayed a melting point of 97.5 to 102 °C.

`CC(C)(C)NC(=O)c1nn(-c2ccc(F)cc2F)c2c1[C@@H]1CC[C@@]2(C)C1(C)C` had a melting point of 161 to 163 °C.

In turn, `COc1ccc2c(c1)CNCCO2` registered a melting point of 96 to 97 °C.

In turn, `COc1ccc(-c2cc(Cl)c3cc(O)c(Br)cc3c2)cc1` yielded a melting point of 138 to 139 °C.

`CCOC(=O)C1CN(C)c2nc(Cl)ncc2C1=O` (configuration not stated) showed a melting point of 175 °C.

`CC(c1oc2ccccc2c(=O)c1-c1cccc(F)c1)n1nc(-c2cccc3[nH]ncc23)c2c(N)ncnc21` (configuration not stated) showed a melting point of 231 to 233 °C.

On to `CC1CCC2(C)C(=CCC3C4CC(Br)C(=O)C4(C)CCC32)C1` (configuration not stated), for which the melting point fell in the range of 186 to 188 °C.

On to `CC(C)(Oc1ccc(Cl)cc1)C(O)(Cn1cncn1)c1ccc(Cl)cc1` (configuration not stated), for which the melting point was 135 °C.

For the molecule `COC(=O)C[C@H](O)C[C@H](O)CCc1c(-c2ccc(F)cc2)c(-c2ccc(F)cc2)c(C(=O)Nc2cccc(C(=O)N(C)C)c2)n1C(C)C`, the melting point lay in the range of 95 to 98 °C.

Molecule `CN(C)C(=S)SC(C[N+](=O)[O-])c1ccc(Cl)s1` (configuration not stated) showed a melting point of 76 to 77 °C.

The molecule `CCCN(CC(=O)Nc1cnc(C)nc1N(CC)CC)c1ccccc1` yielded a melting point of 96.6 to 98.1 °C.

On to `COCCOCCN1C(=O)C2(COc3cc4c(cc32)OCCO4)c2c1ccc1ncsc21` (configuration not stated), for which the melting point lay within 156 to 158 °C.

For `OC(CC1CCN(CC2CC2)CC1)(c1ccc(F)cc1)c1ccc(F)cc1`, the melting point fell in the range of 119 to 121 °C.

In the case of `CCOC(=O)/C=C/C=C/C(=O)c1cc2c(cc1C)C(C)(C)CCC2(C)C`, the melting point fell in the range of 101 to 102 °C.

In turn, `CC(C)[C@H](NC(=O)N(C)Cc1ccccn1)C(=O)O` showed a melting point of 145 °C.

For the molecule `CC(Nc1cc(Br)ccc1[N+](=O)[O-])C(=O)O` (configuration not stated), the melting point was in the range of 183 to 187 °C.

`CCCc1c(OCc2cc(Br)c(C(=O)O)cc2OC)ccc(C(C)=O)c1O`: the melting point was in the range of 237 to 238 °C.

In turn, `Clc1ccc2[nH]c3c4c(Cl)cccc4nc-3cc2c1` had a melting point of 221 to 222 °C.

The molecule `CC(=O)N1CCc2nc3cccc(N)c3c(C)c2CC1` displayed a melting point of 150 °C.

For `CCc1ccc(OCC(O)CN2CCC3(CC2)CSC2=C(O3)c3ccccc3C(=O)C2=O)cc1` (configuration not stated), the melting point lay within 137 to 138 °C.

With `O=C1CCCCCC1n1nc(-c2c(-c3ccccc3)nn3ccccc23)ccc1=O` (configuration not stated), the melting point lay in the range of 112 to 114 °C.

Consider `Cc1cc(-c2cccc(NC(=O)N[C@@H]3c4cc(C#N)ccc4OC(C)(C)[C@H]3O)c2)n(C)n1`, for which the melting point was in the range of 142 to 152 °C.

Regarding `COCCn1cc(C(=O)NCc2ccc(Cl)cc2)c(=O)c2cc(CCl)sc21`, the melting point was in the range of 192 to 193 °C.

Molecule `Brc1ccc2c(c1)C1(OCCCO1)C1=NCCCN12` showed a melting point of 145 to 149 °C.

`CC(=O)NC[C@H]1CN(c2ccc(N3CCN(C(=O)CCC(=O)c4ccc(C(N)=O)cc4)CC3)c(F)c2)C(=O)O1` returned a melting point above 250 °C.

Take `Cc1oc(-c2ccccc2)nc1COc1ccc(C(=O)c2ccccc2)c(O)c1`: the melting point was 115 to 116 °C.

As for `C#Cc1cn(C)c2cc(-c3ccccc3Cl)c3c(c12)C(=O)NC3=O`, the melting point is 125 to 129 °C.

For the molecule `Cc1cc(=O)c(OCc2ccccc2)c(C(=O)NC2CCCCC2)n1C`, the melting point is 258 to 260 °C.

On to `Cc1ccc(-c2ncc(N(C)CCCCOCC(=O)O)nc2-c2ccc(C)cc2)cc1`, for which the melting point lay within 161 to 162 °C.

With `COC(=O)CCc1cc2nc(Cl)ccc2n1S(=O)(=O)c1cc(OC)ccc1OC`, the melting point was determined as 127 °C.

Regarding `Cc1ccc2oc(=O)c(C(=O)O)c(-c3ccccc3)c2c1`, the melting point was in the range of 129 to 131 °C.
